One test concerns NCI-H292 cells. The test is described as follows: Cell viability assay (CellTiter-Glo), NCI-H292. The class given is cell-based. The note with it: Homo sapiens, 72 hrs, read-out: Cell Viability Assay: IC50 Determination NCI-H292. As for the experimental part: Cell culture: HCTI 16, HT-29, and NCI-H292 cells were acquired from American Type Culture Collection (ATCC). HCT116 and HT-29 cells were maintained in ATCC-formulated McCoy's 5a Medium Modified supplemented with 10% fetal bovine serum, NCI-H292 cells were cultured in ATCC formulated RPMI-1640 supplemented with 10% fetal bovine serum. All cells were maintained at 37° C., 5% CO2.
Efficacy of exemplary compounds in inhibition of cell viability: HCT116 and HT-29 cells were plated at 4,000 cells per well and NCI-H292 cells were plated at 2,000 cells per well in their respective media in 384-well white, TC-treated plates (Corning). After 24 hours of incubation, the cells were treated with vehicle (DMSO) or test compounds (0.1% DMSO in final volume) for 72 hrs. The plate was equilibrated at room temperature for 10 mins followed by addition of a 1:1 volume of CellTiter-Glo® reagent (Promega). The contents were mixed for 2 mins on an orbital shaker to induce lysis. The plate was incubated at room temperature for 10 mins to stabilize luminescent signal before measuring luminescence on a Cytation5 microplate reader (Agilent). % inhibition as a function of compound concentration from 3 replicate wells was fit with a 4-parameter logistic curve using GraphPad Prism or CDD Vault to derive IC50 values.
In this table, for the BRAF ADP Glo kinase assay, “A” indicates IC50 of less than 5 nM; “B” indicates IC50 of between 5 nM to 50 nM; and “C” indicates IC50 of between 50 nM to 500 nM. “D” indicates IC50 of greater than 500 nM. For the BRAF-MEK TR-FRET assay, “A” indicates EC50 of less than 50 nM; “B” indicates EC50 of between 50 nM to 200 nM; and “C” indicates EC50 of between 200 nM to 1 μM. “D′” indicates EC50 of greater than 1 μM. For the AlphaLisa P-ERK assay, “A” indicates IC50 of less than 1 nM; “B” indicates IC50 of between 1 nM to 10 nM; and “C” indicates IC50 of between 10 nM to 100 nM. “D” indicates IC50 of greater than 100 nM. For the cell viability assay, “A” indicates IC50 of less than 1 nM; “B” indicates IC50 of between 1 nM to 10 nM; and “C” indicates IC50 of between 10 nM to 100 nM. “D” indicates IC50 of greater than 100 nM.
A general note: Cellular ATP, detected with luciferase, serves as a proxy for viable cell number.

In a further test the target is T1, MEK1 (Homo sapiens, UniProt Q02750).
T1 construct: purchased SignalChem M02-14H
Kind of test: MEK1 kinase cascade assay (ADP-Glo), inhibition of MEK1 kinase activity. The conditions noted are these: 25 nM BRAF, 6.25 nM MEK1, 0.5 μM ERK, 1 mM ATP; 20 min preincubation, 1 hr at 25° C.; read-out: BRAF ADP Glo kinase assay V3 (IC50). In kind it is biochemical. The procedure, abridged: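 Cascade format with ADP-Glo read-out: BRAF (25 nM) and compound, 1% DMSO, 20 mins at 25° C, then MEK1 6.25 nM, ERK1 0.5 μM, ATP 1 mM for 1 hr at 25° C in HEPES pH 7.5 buffer with MgCl2, CHAPS and DTT. Percent inhibition, scaled between DMSO and 1 μM Trametinib, was fit by 4-parameter logistic to give IC50 (2 replicate wells).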

A further test deals with BRAF-MEK1. Kind of test: BRAF-MEK TR-FRET assay, stabilization of MEK1 and BRAF interaction. The class given is binding. The conditions noted are these: 4 nM BRAF, 10 nM MEK, 100 μM ATP; 1 hr at 25° C.; read-out: BRAF-MEK TR-FRET Assay (EC50, fold stabilization). The method in brief:
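Read-out is fold stabilization (treated FRET ratio/DMSO, Em 665/620 nm), fit 4-parameter for EC50 from 2 replicates. Compounds sat with 4 nM GST-BRAF and 10 nM in-house His-MEK1 1 h at 25° C (Tris pH 7.5, MgCl2, 100 μM ATP), then detection antibodies 1 h.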

pEC50, pIC50: −log10 of the molar value. Where only a bound is given, the exact number is not on record here.

T1 sequence (Q02750 whole entry): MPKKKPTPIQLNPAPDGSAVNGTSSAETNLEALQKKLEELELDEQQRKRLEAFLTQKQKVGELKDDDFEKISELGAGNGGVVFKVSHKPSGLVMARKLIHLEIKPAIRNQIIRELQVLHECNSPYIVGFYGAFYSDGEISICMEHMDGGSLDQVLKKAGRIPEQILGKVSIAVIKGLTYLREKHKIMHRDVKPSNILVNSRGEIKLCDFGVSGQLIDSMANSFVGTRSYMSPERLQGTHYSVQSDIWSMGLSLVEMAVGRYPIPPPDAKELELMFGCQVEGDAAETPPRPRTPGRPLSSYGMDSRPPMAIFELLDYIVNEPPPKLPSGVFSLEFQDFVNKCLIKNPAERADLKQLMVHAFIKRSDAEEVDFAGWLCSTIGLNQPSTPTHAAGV
T1 sequence (P15056 445-723 partner limits assumed): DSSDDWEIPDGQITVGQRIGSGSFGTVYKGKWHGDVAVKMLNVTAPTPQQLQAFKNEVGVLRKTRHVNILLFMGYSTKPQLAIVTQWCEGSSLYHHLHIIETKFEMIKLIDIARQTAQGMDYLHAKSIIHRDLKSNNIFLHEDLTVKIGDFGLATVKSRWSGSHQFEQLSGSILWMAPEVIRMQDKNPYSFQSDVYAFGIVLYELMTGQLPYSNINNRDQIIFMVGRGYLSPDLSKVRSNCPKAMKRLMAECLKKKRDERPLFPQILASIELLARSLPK

By pIC50 is commonly meant the negative decadic logarithm of the IC50, by convention in mol/L. Take `O=C1Oc2cc(Oc3ncco3)c(F)cc2C2(CCC2)N1Cc1ccnc(NS(=O)(=O)C2CC2)c1F` [Compound 170, (cyclopropylsulfonyl)[3-fluoro-4-({6-fluoro-7-(1,3-oxazol-2-yloxy)-2-oxo-2H,3H-spiro[1,3-benzoxazine-4,1′-cyclobutan]-3-yl}methyl)-2-pyridyl]amine]: the pIC50 is 7.00 to 8.00 in the test on NCI-H292 cells and 7.30 to 8.30 at MEK1. For the same compound, in the test with BRAF-MEK1, the pEC50 is 6.00 to 6.70.

Regarding `[2H]C1([2H])c2ccc(Oc3cccnn3)cc2OC(=O)N1Cc1cccc(NS(=O)(=O)N(C)C)c1F` [Compound 39, 3-{[3-(dimethylaminosulfonylamino)-2-fluorophenyl]methyl}-7-(3-pyridazinyloxy)(4,4-^2H2)-3,4-dihydro-2H-1,3-benzoxazin-2-one], the pIC50 is 8.00 to 9.00 with NCI-H292 cells and 7.30 to 8.30 at MEK1. In the test with BRAF-MEK1, the pEC50 is > 7.30.

Take `CNS(=O)(=O)Nc1cccc(CN2C(=O)Oc3c(ccc(OC(=O)N(C)C)c3F)[C@@H]2C)c1F` (single isomer, unassigned) [Compound 103, (S)-8-fluoro-3-(2-fluoro-3-((N-methylsulfamoyl)amino)benzyl)-4-methyl-2-oxo-3,4-dihydro-2H-benzo[e][1,3]oxazin-7-yl dimethylcarbamate or (R)-8-fluoro-3-(2-fluoro-3-((N-methylsulfamoyl)amino)benzyl)-4-methyl-2-oxo-3,4-dihydro-2H-benzo[e][1,3]oxazin-7-yl dimethylcarbamate]: the figures for the pIC50 with NCI-H292 cells and at MEK1 were 8.00 to 9.00 and 7.30 to 8.30, respectively. The pEC50 in the test with BRAF-MEK1 was 6.00 to 6.70.

For the compound `CNS(=O)(=O)Nc1cccc(CN2C(=O)Oc3cc(Oc4ncco4)ccc3[C@@H]2C)c1F` (single isomer, unassigned) [Compound 78, (S)-3-({2-fluoro-3-(methylsulfamoyl)amino]phenyl}methyl)-4-methyl-7-(1,3-oxazol-2-yloxy)-3,4-dihydro-2H-1,3-benzoxazin-2-one or (R)-3-({2-fluoro-3-(methylsulfamoyl)amino]phenyl}methyl)-4-methyl-7-(1,3-oxazol-2-yloxy)-3,4-dihydro-2H-1,3-benzoxazin-2-one], the pIC50 with NCI-H292 cells is 7.00 to 8.00; at MEK1 it was 7.30 to 8.30. Moreover, in the test on BRAF-MEK1, the pEC50 was 6.00 to 6.70.

On to `CN(C)C(=O)Oc1cc(F)c2c(c1)OC(=O)N(Cc1cccc(NS(=O)(=O)C3CC3)c1F)C2` [Compound 102, 3-(3-(cyclopropanesulfonamido)-2-fluorobenzyl)-5-fluoro-2-oxo-3,4-dihydro-2H-benzo[e][1,3]oxazin-7-yl dimethylcarbamate], for which the values for the pIC50 with NCI-H292 cells and on MEK1 were 8.00 to 9.00 and 7.30 to 8.30, respectively. The pEC50 in the test with BRAF-MEK1 is 6.70 to 7.30.

On to `CN(C)C(=O)Oc1ccc2c(c1)OC(=O)N(Cc1cccc(NS(=O)(=O)C3CC3)c1F)C2` [Compound 125, 3-(3-(cyclopropanesulfonamido)-2-fluorobenzyl)-2-oxo-3,4-dihydro-2H-benzo[e][1,3]oxazin-7-yl dimethylcarbamate], for which the negative logarithm of the IC50 (pIC50) in the test with NCI-H292 cells was 7.00 to 8.00; at MEK1 it was 7.30 to 8.30. In addition, the pEC50 in the test with BRAF-MEK1 is 6.00 to 6.70.

For `CNS(=O)(=O)Nc1cccc(CN2C(=O)Oc3c(ccc(OC(=O)N(C)C)c3F)C23COC3)c1F` [Compound 77, 8-fluoro-3-({2-fluoro-3-(methylsulfamoyl)amino]phenyl}methyl)-2-oxo-2,3-dihydrospiro[1,3-benzoxazine-4,3′-oxetan]-7-yl N,N-dimethyl carbamate], the negative-log IC50 (pIC50) with NCI-H292 cells is > 9.00; at MEK1, 7.30 to 8.30. The pEC50 with BRAF-MEK1 was 6.70 to 7.30.

For `CN(C)C(=O)Oc1ccc2c(c1)OC(=O)N(Cc1cccc(NS(=O)(=O)N3CCC(F)C3)c1F)C2` (stereo not drawn) [Compound 113, 3-(2-fluoro-3-((3-fluoropyrrolidine)-1-sulfonamido)benzyl)-2-oxo-3,4-dihydro-2H-benzo[e][1,3]oxazin-7-yl dimethylcarbamate], the figures for the pIC50 with NCI-H292 cells and on MEK1 were 8.00 to 9.00 and 7.30 to 8.30, respectively. The pEC50 in the test with BRAF-MEK1 was 6.00 to 6.70.

On to `CNS(=O)(=O)Nc1cccc(CN2C(=O)Oc3cc(Oc4cccnn4)cc(F)c3[C@@H]2C)c1F` (single isomer, unassigned) [Compound 56], for which the negative logarithm of the IC50 (pIC50) was 7.00 to 8.00 in the test on NCI-H292 cells and 7.30 to 8.30 on MEK1. Besides, in the test with BRAF-MEK1, the pEC50 is 6.00 to 6.70.

Regarding `CNS(=O)(=O)Nc1cccc(CN2C(=O)Oc3cc(Oc4cccnn4)ccc3C2(C)C)c1F` [Compound 51, 3-({2-fluoro-3-[(methylsulfamoyl)amino]phenyl}methyl)-4,4-dimethyl-7-(pyridazine-3-yloxy)-3,4-dihydro-2H-1,3-benzoxazin-2-one], the results for the pIC50 with NCI-H292 cells and on MEK1 were 7.00 to 8.00 and 7.30 to 8.30, respectively. For the same compound, the pEC50 in the test on BRAF-MEK1 was 6.00 to 6.70.

With `CNS(=O)(=O)Nc1cccc(CN2C(=O)Oc3cc(OC(=O)N(C)C)c(Cl)cc3[C@@H]2C)c1F` [Compound 108, (S)-6-chloro-7-(dimethylaminocarbonyloxy)-3-{[2-fluoro-3-(methylaminosulfonylamino)phenyl]methyl}-4-methyl-3,4-dihydro-2H-1,3-benzoxazin-2-one], the pIC50 was > 9.00 with NCI-H292 cells and 7.30 to 8.30 on MEK1. Besides, the pEC50 in the test with BRAF-MEK1 was 6.70 to 7.30.

Consider `CNS(=O)(=O)Nc1nccc(CN2C(=O)Oc3cc(Oc4nccnn4)c(F)cc3C23CCC3)c1F` [Compound 166, 6-fluoro-3-{[3-fluoro-2-(methylaminosulfonylamino)-4-pyridyl]methyl}-7-(1,2,4-triazin-3-yloxy)-2H,3H-spiro[1,3-benzoxazine-4,1′-cyclobutan]-2-one], for which the pIC50 was 8.00 to 9.00 in the test with NCI-H292 cells and 7.30 to 8.30 on MEK1. In the test on BRAF-MEK1, the pEC50 was > 7.30.

On to `CNS(=O)(=O)Nc1cccc(CN2C(=O)Oc3cc(OC(=O)N(C)C)ccc3C23CCC3)c1F` [Compound 38, 3-({2-fluoro-3-[(methylsulfamoyl)amino]phenyl}methyl)-2-oxo-2,3-dihydrospiro[1,3-benzoxazine-4,1′-cyclobutan]-7-yl N,N-dimethylcarbamate], for which the pIC50 was > 9.00 in the test with NCI-H292 cells and > 8.30 on MEK1. Besides, in the test on BRAF-MEK1, the pEC50 is > 7.30.

For the compound `CNS(=O)(=O)Nc1cccc(CN2Cc3ccc(Oc4ncccn4)c(F)c3OC2=O)c1F` [Compound 123, 8-fluoro-3-{[2-fluoro-3-(methylaminosulfonylamino)phenyl]methyl}-7-(2-pyrimidinyloxy)-3,4-dihydro-2H-1,3-benzoxazin-2-one], the values for the pIC50 in the test with NCI-H292 cells and on MEK1 were 7.00 to 8.00 and 7.30 to 8.30, respectively. Further, the pEC50 with BRAF-MEK1 was 6.00 to 6.70.

As to `O=C1Oc2cc(Oc3ncco3)ccc2C2(CCC2)N1Cc1ccnc(NS(=O)(=O)C2CC2)c1F` [Compound 167, (cyclopropylsulfonyl)[3-fluoro-4-({7-(1,3-oxazol-2-yloxy)-2-oxo-2H,3H-spiro[1,3-benzoxazine-4,1′-cyclobutan]-3-yl}methyl)-2-pyridyl]amine], the pIC50 with NCI-H292 cells is 7.00 to 8.00; at MEK1, 7.30 to 8.30. Moreover, the pEC50 with BRAF-MEK1 is 6.70 to 7.30.

For `C[C@@H]1c2ccc(Oc3cccnn3)c(F)c2OC(=O)N1Cc1cccc(NS(=O)(=O)N(C)C)c1F` (single isomer, unassigned) [Compound 43], the results for the pIC50 in the test on NCI-H292 cells and at MEK1 were 8.00 to 9.00 and > 8.30, respectively. Besides, the pEC50 in the test with BRAF-MEK1 was > 7.30.

The record behind these values is patent publication US20260297105A1, “RAF-MEK PROTEIN COMPLEX MODULATORS AND METHODS OF USE THEREOF” (GANDEEVA THERAPEUTICS, INC., priority 2023, published 2026).
